In patent publication US6426369B1, “Oxethazaine as antimicrobial agent” (Eisai Co., Ltd., priority 1997, dated 2002):
Like-named read-outs stand apart in the source and are kept apart here.

Key:
[1] = Acute toxicity test, single oral dose, mice; details: Slc:ICR, mouse, in vivo, read-out: LD50 (Oral administration)
Procedure: A toxicity test was conducted by orally administering a single dose into 7- to 8-weeks old Slc:SD rats and Slc:ICR mice, each group consisting of 5 females and 5 males (medium; physiological saline).

[2] = system: H. pylori; assay: Antimicrobial activity test 3: oxethazaine in combination with compound (II), checker board method; type: cell-based; details: Helicobacter pylori
Excerpt: In each Table, the concentration of oxethazaine is shown vertically, and the concentration of compound (II) is shown horizontally. In each Table, “−” indicates the inhibited growth of H. pylori (presence of antimicrobial activity), and “+” indicates the growth of H. pylori (absence of antimicrobial activity). […] It is assumed to be present when the MIC of either oxethazaine or PPI is reduced by ½ (when anti-H. pylori activity is not recognized when the concentrations of both oxethazaine and PPI are reduced to ¼, but anti-H. pylori activity is recognized when the concentration of one compound is reduced to ¼ and simultaneously the concentration of the other compound is reduced to ½.).

[3] = system: H. pylori; assay: Antimicrobial activity test 6: oxethazaine in combination with an antibiotic (AMPC, CAM, RXM), checker board method; type: cell-based, Helicobacter pylori; parameters: key to growth of H. pylori: “−” indicates the inhibited growth of H. pylori (presence of antimicrobial activity); “+” indicates the growth of H. pylori (absence of antimicrobial activity)
Excerpt: The effect of combined use with amoxicillin (AMPC), clarithromycin (CAM) or roxithromycin (RXM) was examined in the same manner as in antimicrobial activity test 1, using the checker board method.

## CN(C(=O)CN(CCO)CC(=O)N(C)C(C)(C)Cc1ccccc1)C(C)(C)Cc1ccccc1 [Oxethazaine, 2,2′-[(2-hydroxyethyl)amino]bis[N-(1,1-dimethyl-2-phenylethyl)-N-methylacetamide]]
[1]; female, Mouse ♀
  LD50: ≥ 1000 mg/kg
[1]; male, Mouse ♂
  LD50: 1230 mg/kg
[2]; NCTC11637, NCTC 11637
  MIC: 25 µg/mL
[2]; NCTC11639, NCTC 11639
  MIC: 50 µg/mL
[3]; 89-355, oxethazaine 3.13 + CAM 0 μg/ml
  growth of H. pylori: +
[3]; 89-355, oxethazaine 6.25 + CAM 0 μg/ml
  growth of H. pylori: +
[3]; 89-355, oxethazaine 12.5 + CAM 0 μg/ml
  growth of H. pylori: −
[3]; 89-355, oxethazaine 25 + CAM 0 μg/ml
  growth of H. pylori: −
[3]; 89-355, oxethazaine 50 + CAM 0 μg/ml
  growth of H. pylori: −
[3]; 89-355, oxethazaine 100 + CAM 0 μg/ml
  growth of H. pylori: −
[3]; 89-357, oxethazaine 3.13 + CAM 0 μg/ml
  growth of H. pylori: +
[3]; 89-357, oxethazaine 6.25 + CAM 0 μg/ml
  growth of H. pylori: +
[3]; 89-357, oxethazaine 12.5 + CAM 0 μg/ml
  growth of H. pylori: +
[3]; 89-357, oxethazaine 25 + CAM 0 μg/ml
  growth of H. pylori: −
[3]; 89-357, oxethazaine 50 + CAM 0 μg/ml
  growth of H. pylori: −
[3]; 89-357, oxethazaine 100 + CAM 0 μg/ml
  growth of H. pylori: −
[3]; 90-388, oxethazaine 3.13 + CAM 0 μg/ml
  growth of H. pylori: +
[3]; 90-388, oxethazaine 6.25 + CAM 0 μg/ml
  growth of H. pylori: +
[3]; 90-388, oxethazaine 12.5 + CAM 0 μg/ml
  growth of H. pylori: +
[3]; 90-388, oxethazaine 25 + CAM 0 μg/ml
  growth of H. pylori: −
[3]; 90-388, oxethazaine 50 + CAM 0 μg/ml
  growth of H. pylori: −
[3]; 90-388, oxethazaine 100 + CAM 0 μg/ml
  growth of H. pylori: −
[3]; 90-390, oxethazaine 3.13 + CAM 0 μg/ml
  growth of H. pylori: +
[3]; 90-390, oxethazaine 6.25 + CAM 0 μg/ml
  growth of H. pylori: +
[3]; 90-390, oxethazaine 12.5 + CAM 0 μg/ml
  growth of H. pylori: +
[3]; 90-390, oxethazaine 25 + CAM 0 μg/ml
  growth of H. pylori: −
[3]; 90-390, oxethazaine 50 + CAM 0 μg/ml
  growth of H. pylori: −
[3]; 90-390, oxethazaine 100 + CAM 0 μg/ml
  growth of H. pylori: −
[3]; EH 12, oxethazaine 3.13 + CAM 0 μg/ml
  growth of H. pylori: +
[3]; EH 12, oxethazaine 6.25 + CAM 0 μg/ml
  growth of H. pylori: +
[3]; EH 12, oxethazaine 12.5 + CAM 0 μg/ml
  growth of H. pylori: −
[3]; EH 12, oxethazaine 25 + CAM 0 μg/ml
  growth of H. pylori: −
[3]; EH 12, oxethazaine 50 + CAM 0 μg/ml
  growth of H. pylori: −
[3]; EH 12, oxethazaine 100 + CAM 0 μg/ml
  growth of H. pylori: −
[3]; EH 13, oxethazaine 3.13 + CAM 0 μg/ml
  growth of H. pylori: +
[3]; EH 13, oxethazaine 6.25 + CAM 0 μg/ml
  growth of H. pylori: +
[3]; EH 13, oxethazaine 12.5 + CAM 0 μg/ml
  growth of H. pylori: +
[3]; EH 13, oxethazaine 25 + CAM 0 μg/ml
  growth of H. pylori: −
[3]; EH 13, oxethazaine 50 + CAM 0 μg/ml
  growth of H. pylori: −
[3]; EH 13, oxethazaine 100 + CAM 0 μg/ml
  growth of H. pylori: −
[3]; strain 90-388, oxethazaine 3.13 μg/ml, AMPC 0
  growth of H. pylori: +
[3]; strain 90-388, oxethazaine 6.25 μg/ml, AMPC 0
  growth of H. pylori: +
[3]; strain 90-388, oxethazaine 12.5 μg/ml, AMPC 0
  growth of H. pylori: +
[3]; strain 90-388, oxethazaine 25 μg/ml, AMPC 0
  growth of H. pylori: −
[3]; strain 90-388, oxethazaine 50 μg/ml, AMPC 0
  growth of H. pylori: −
[3]; strain 90-388, oxethazaine 100 μg/ml, AMPC 0
  growth of H. pylori: −
[3]; strain 90-390, oxethazaine 3.13 μg/ml, AMPC 0
  growth of H. pylori: +
[3]; strain 90-390, oxethazaine 6.25 μg/ml, AMPC 0
  growth of H. pylori: +
[3]; strain 90-390, oxethazaine 12.5 μg/ml, AMPC 0
  growth of H. pylori: +
[3]; strain 90-390, oxethazaine 25 μg/ml, AMPC 0
  growth of H. pylori: −
[3]; strain 90-390, oxethazaine 50 μg/ml, AMPC 0
  growth of H. pylori: −
[3]; strain 90-390, oxethazaine 100 μg/ml, AMPC 0
  growth of H. pylori: −
[3]; strain 90-397, CAM 0 μg/ml (oxethazaine alone), oxethazaine μg/ml by row r6-r11: 100, 50, 25, 12.5, 6.25, 3.13
  growth of H. pylori: +
[3]; strain 90-397, CAM 0.006 μg/ml, oxethazaine μg/ml: 100, 50, 25, 12.5, 6.25, 3.13, 0
  growth of H. pylori: +
[3]; strain 90-397, CAM 0.012 μg/ml, oxethazaine μg/ml: 100, 50, 25, 12.5, 6.25, 3.13, 0
  growth of H. pylori: +
[3]; strain 90-397, CAM 0.024 μg/ml, oxethazaine μg/ml: 100, 50, 25, 12.5, 6.25, 3.13, 0
  growth of H. pylori: +
[3]; strain 90-397, CAM 0.05 μg/ml, oxethazaine μg/ml: 100, 50, 25, 12.5, 6.25, 3.13, 0
  growth of H. pylori: +
[3]; strain 90-397, CAM 0.1 μg/ml, oxethazaine μg/ml: 100, 50, 25, 12.5, 6.25, 3.13, 0
  growth of H. pylori: −
[3]; strain 90-397, CAM 0.2 μg/ml, oxethazaine μg/ml: 100, 50, 25, 12.5, 6.25, 3.13, 0
  growth of H. pylori: −
